Experimental data reported in PMC10653753 (Emerging Microbes & Infections, 2023).
Like-named read-outs stand apart in the source and are kept apart here.

Legend:
CHIKV [1] = conditions: read-out: 50% inhibitory concentration against CHIKV; Huh-7 cells; cited from earlier work
CHIKV [2] = assay: Cell-based antiviral efficacy in CHIKV-infected Vero cells, plaque titration; conditions: Chikungunya virus, 72 h, read-out: EC50, CHIKV replication
CHIKV [3] = conditions: Vero cells, cited from earlier work
[4] = monkeys, 500 mg/kg; cited from earlier work

In the case of `O=c1cc(-c2ccccc2)oc2cc(O)c(O)c(O)c12` [baicalein], the IC50 (CHIKV [1]) is listed as 16.9 µM, the EC50 (CHIKV [2]) is listed as 0.52 ± 0.06 µM and the “50% inhibitory concentration against CHIKV” value (CHIKV [3]) is listed as 1.891 µg/mL. The IC50 (CHIKV [3]; read-out: 50% inhibitory concentration against CHIKV) was 7 µM and the “Toxicity throughout the pharmacokinetic study” value [4] was “no apparent toxicity”.
